In the assay the target is Dual specificity tyrosine-phosphorylation-regulated kinase 1A (Homo sapiens, UniProt Q13627). As to the kind of experiment: DYRK1A kinase assay. Here is the method:
The mixture was allowed to incubate with the representative compounds for one hour at room temperature. All reactions were performed in duplicate. Unphosphorylated ( 0% Control ) and phosphorylated ( 100% control ) forms of Ser/Thr 18 served as control reactions. Additionally, an 11-point dose-response curve of Staurosporine (luM top) was run to serve as a positive compound control. After incubation, Development Reagent A was diluted in Development Buffer then added to the reaction and allowed to further incubate for one hour at room temperature.
For orientation: EC50 means the concentration giving half of the maximal effect. Lower therefore signals an effect from little substance. In turn, `CCn1nnc2ccc(-c3ccn4nc(N[C@H]5CC[C@](C)(O)CC5)nc(OC)c34)cc21` [US20240002391, Compound 639] showed a 50% effective concentration (EC50) of 1.3 nM.
Regarding `COc1nc(N[C@H]2C[C@@](C)(O)C2)nn2ccc(-c3ccc4nccn4c3)c12` [US20240002391, Compound 43], a half-maximal effect (EC50) was put at 1.3 nM.
Compound `COc1nc(N[C@H]2C[C@]3(CCN3CC(F)F)C2)nn2ccc(-c3ccc4nccnc4c3)c12` [US20240002391, Compound 1099] yielded an EC50 of 0.7 nM.
For `COc1nc(N[C@H]2C[C@](C)(O)C2)nn2ccc(-c3ccc4nccn4c3)c12` [US20240002391, Compound 44] the value was 3.2 nM.
Then `COc1nc(N[C@H]2CC[C@@](C)(O)CC2)nn2ccc(-c3ccc4nnn(CCF)c4c3)c12` [US20240002391, Compound 658], with 4.5 nM.
For `COc1nc(N[C@H]2C[C@@](C)(NC(C)=O)C2)nn2ccc(-c3ccc4nnn(CCF)c4c3)c12` [US20240002391, Compound 653] the value was 1.3 nM; for `COc1nc(N[C@H]2C[C@@](C)(N)C2)nn2ccc(-c3ccc4ncnn4c3)c12` [US20240002391, Compound 189], 18.8 nM; for `COc1nc(N[C@H]2CC[C@](C)(O)CC2)nn2ccc(-c3ccc4nnn(CCF)c4c3)c12` [US20240002391, Compound 659], 0.9 nM.
`COc1nc(N[C@H]2CC[C@](C)(O)CC2)nn2cc(F)c(-c3ccc4nnn(C)c4c3)c12` [US20240002391, Compound 629]: the EC50 was 2.4 nM.
In turn, `Cn1nnc2ccc(-c3ccn4nc(N[C@H]5CC[C@](C)(O)CC5)nc(OC5COC5)c34)cc21` [US20240002391, Compound 631] came in with an EC50 of 24.5 nM.
Then `COc1nc(N[C@H]2C[C@@](C)(NC(=O)C3(C#N)CC3)C2)nn2ccc(-c3ccc4nnn(C)c4c3)c12` [US20240002391, Compound 625], with 0.9 nM.

Source of the values: BindingDB's records for patent US20240002391 (Biosplice Therapeutics, 2024).
